# Laboratory results taken from US9855249B2, “Isoxazole compounds and methods for the treatment of cystic fibrosis” (FLATLEY DISCOVERY LAB, LLC, priority 2014, dated 2018).
# Test system: CFTR mediated chloride current in Primary CF airway epithelial cells
# Test: Equivalent current assay in primary CF airway epithelial cells (NAUC)
# Type: cell-based
# Details: 24 h treatment, stimulated with forskolin and VX770, normalized to positive control 3 μM VX809
# Experimental: Primary CF airway epithelial cells were obtained from the UNC Cystic Fibrosis Tissue Procurement and Cell Culture Core. The cells are grown at 37° C. in a Heracell 150i incubator using growth media (BEGM, Fischer). Cells were then transferred to differentiation media (ALI, UNC) for a minimum of 4 weeks on coated Costar snapwells. Two days before the Ussing assay the mucus on the apical surface of the cells was aspirated after incubating with 200 μL of differentiation Media for at least thirty (30) minutes. One day before the Ussing assay test compounds were added to the basolateral surface of the cells at various test concentrations dissolved in DMSO. Duplicate wells were prepared giving a n=3 or n=4 protocol.
# Cells were treated for 24 hours with various combinations and concentrations of the test articles, reference standard (3 μM VX809, positive control). Compounds stock solutions were prepared in DMSO and diluted 1/1000 into ALI media to their final assay concentration. Cells were treated with combination solutions (2 mL of each dilution) and incubated at 37° C. for 24 h.
# For the equivalent current assay, cells on four Transwell (24-well) plates were treated. Each Transwell plate was filled with 200 μl of HBS on the apical surface and 2 ml on the basolateral surface. Plates were placed horizontally in a heated mount at 37° C., and equilibrated for several minutes. Resting current was measured for 15 min and then blocked by the apical addition of 5 μM benzamil. After 20 min, 10 μM forskolin and 1 μM VX770 were added to both the apical and basolateral side to stimulate CFTR. An increase in chloride current is seen as an upward deflection of the trace. After another 30 min, CFTR-172 (a CFTR inhibitor, 2 μM) and/or bumetanide (20 μM) was added to block CFTR mediated chloride current.
# The raw data, current vs. time for the Ussing chamber (sampling interval: 10 s) and voltage vs. time and resistance vs. time for the equivalent current assay (sampling interval: 5 minutes) were transferred to Excel (Microsoft Office Professional, version 14.0.7106.5003) for analysis. CFTR specific current was measured as the average amplitude of the increase in current elicited upon addition forskolin and ending upon addition of the CFTR channel specific blocker CFTR-172. This average is equivalent to the sum of the average forskolin activated and the average VX770-potentiated currents. The average current measured in vehicle (0.1% DMSO) treated cells, Iv, was subtracted from the current for the test article, ITA, or from the corrector reference standard VX809 (3 μM ISTD. For replicate measurements, the average vehicle subtracted response for the test article, was normalized to the average vehicle subtracted […] response of the reference corrector VX809 (3 μM). INSC=(ITA−IV)(ave)/(ISTD−IV)(ave) (Equation 1)
# A second endpoint, for the equivalent current assay, evaluated was NAUC, the normalized area under the curve (AUC) measuring the response after addition of forskolin and VX770 to the time point right before the addition of the CFTR inhibitor. The AUC is effectively the average response multiplied by the duration of the response. The AUC of the test article, AUCTA was then corrected by subtracting the average vehicle response, AUCV,ave over the same time range, and normalized as for the inhibitor-sensitive current to the difference of the corrector reference standard VX809 (3 μM VX809r,ave and the vehicle response: NAUCTA=[AUCTA−AUCV,ave]/[AUCVx809r,ave−AUCV,ave](Equation 2).
# The normalized value for DMSO is 0.0 and for VX-809 alone is 1.0. Combinations of compounds with VX-809 that give normalized values greater than 1.0 show activity in the combination assay. A value of 2 means the test compound doubles the effect to VX-809 alone.
# Experiments were run with a minimum of n=4 replicates per concentration. […]
SMILES,"NAUC (normalized area under the curve), Test Conc 3 uM","NAUC (normalized area under the curve), Test Conc 10 uM"
"CN1CCN(C(=O)CCCNC(=O)c2cc(-c3ccc(F)cc3)on2)CC1 [Example 14, 5-(4-fluorophenyl)-N-(4-(4-methylpiperazin-1-yl)-4-oxobutyl)isoxazole-3-carboxamide]",+++ (NAUC “+++” refers to an observed NAUC >170% of positive control),+++ (NAUC “+++” refers to an observed NAUC >170% of positive control)
"O=C(NCC1CC1)c1cc(-c2ccc(F)cc2)on1 [Example 36, N-(cyclopropylmethyl)-5-(4-fluorophenyl)isoxazole-3-carboxamide]",++ (NAUC “++” refers to an observed NAUC 170-140% of positive control),+++ (NAUC “+++” refers to an observed NAUC >170% of positive control)
O=C(NCC1CCCCC1)c1cc(-c2ccc(F)cc2)on1 [Example 33],+ (NAUC “+” refers to an observed NAUC <140% of positive control),+ (NAUC “+” refers to an observed NAUC <140% of positive control)
O=C(CCNC(=O)c1cc(-c2ccc(F)cc2)on1)Nc1ccccn1 [Example 13],+ (NAUC “+” refers to an observed NAUC <140% of positive control),++ (NAUC “++” refers to an observed NAUC 170-140% of positive control)
O=C(NCc1cccnc1)c1cc(-c2ccc(F)cc2)on1 [Example 24],++ (NAUC “++” refers to an observed NAUC 170-140% of positive control),++ (NAUC “++” refers to an observed NAUC 170-140% of positive control)
"O=C(NCCC(=O)N1CCC1)c1cc(-c2ccccc2)on1 [Example 44, N-(3-(azetidin-1-yl)-3-oxopropyl)-5-phenylisoxazole-3-carboxamide]",+++ (NAUC “+++” refers to an observed NAUC >170% of positive control),+++ (NAUC “+++” refers to an observed NAUC >170% of positive control)
O=C(NCCOc1ccccc1)c1cc(-c2ccc(F)cc2)on1 [Example 34],+ (NAUC “+” refers to an observed NAUC <140% of positive control),+ (NAUC “+” refers to an observed NAUC <140% of positive control)
"O=C(NCCC(=O)N1CCC1)c1cc(-c2ccc(F)cc2)no1 [Example 51, N-(3-(azetidin-1-yl)-3-oxopropyl)-3-(4-fluorophenyl)isoxazole-5-carboxamide]",++ (NAUC “++” refers to an observed NAUC 170-140% of positive control),+++ (NAUC “+++” refers to an observed NAUC >170% of positive control)
"CN1CCN(C(=O)CCCCNC(=O)c2cc(-c3ccc(F)cc3)no2)CC1 [Example 54, 3-(4-fluorophenyl)-N-(5-(4-methylpiperazin-1-yl)-5-oxopentyl)isoxazole-5-carboxamide]",++ (NAUC “++” refers to an observed NAUC 170-140% of positive control),+++ (NAUC “+++” refers to an observed NAUC >170% of positive control)
CCN(CC)C(=O)CCNC(=O)c1cc(-c2ccc(F)cc2)on1 [Example 3],++ (NAUC “++” refers to an observed NAUC 170-140% of positive control),+++ (NAUC “+++” refers to an observed NAUC >170% of positive control)
"O=C(NCCCCC(=O)N1CCC1)c1cc(-c2ccccc2)on1 [Example 38, N-(5-(azetidin-1-yl)-5-oxopentyl)-5-phenylisoxazole-3-carboxamide]",+++ (NAUC “+++” refers to an observed NAUC >170% of positive control),+++ (NAUC “+++” refers to an observed NAUC >170% of positive control)
O=C(NCc1ccccc1)c1cc(-c2ccc(F)cc2)on1 [Example 27],++ (NAUC “++” refers to an observed NAUC 170-140% of positive control),++ (NAUC “++” refers to an observed NAUC 170-140% of positive control)
O=C(NCC(c1ccccc1)c1ccccc1)c1cc(-c2ccc(F)cc2)on1 [Example 32],+ (NAUC “+” refers to an observed NAUC <140% of positive control),+ (NAUC “+” refers to an observed NAUC <140% of positive control)
O=C(NCc1cccc(F)c1F)c1cc(-c2ccc(F)cc2)on1 [Example 25],+ (NAUC “+” refers to an observed NAUC <140% of positive control),+ (NAUC “+” refers to an observed NAUC <140% of positive control)
"CN1CCN(C(=O)CCCCNC(=O)c2cc(-c3ccc(F)cc3)on2)CC1 [Example 15, 5-(4-fluorophenyl)-N-(5-(4-methylpiperazin-1-yl)-5-oxopentyl)isoxazole-3-carboxamide]",+++ (NAUC “+++” refers to an observed NAUC >170% of positive control),+++ (NAUC “+++” refers to an observed NAUC >170% of positive control)
"CN1CCN(C(=O)CCNC(=O)c2cc(-c3ccc(F)cc3)no2)CC1 [Example 52, 3-(4-fluorophenyl)-N-(3-(4-methylpiperazin-1-yl)-3-oxopropyl)isoxazole-5-carboxamide]",++ (NAUC “++” refers to an observed NAUC 170-140% of positive control),+++ (NAUC “+++” refers to an observed NAUC >170% of positive control)
O=C(NC[C@H]1CCCO1)c1cc(-c2ccc(F)cc2)on1 [Example 30],++ (NAUC “++” refers to an observed NAUC 170-140% of positive control),++ (NAUC “++” refers to an observed NAUC 170-140% of positive control)
O=C(NCC(F)(F)F)c1cc(-c2ccc(F)cc2)on1 [Example 35],++ (NAUC “++” refers to an observed NAUC 170-140% of positive control),+++ (NAUC “+++” refers to an observed NAUC >170% of positive control)
"O=C(NCCN1CCOCC1)c1cc(-c2ccc(F)cc2)on1 [Example 37, 5-(4-fluorophenyl)-N-(2-morpholinoethyl)isoxazole-3-carboxamide]",+ (NAUC “+” refers to an observed NAUC <140% of positive control),++ (NAUC “++” refers to an observed NAUC 170-140% of positive control)
